One data set has as its target electric eel AChE (Electrophorus electricus, UniProt O42275). Put plainly: biochemical.
Data set [1] deals with horse butyxylcholinesterase (Equus caballus, UniProt P81908). Put plainly: biochemical.
Data set [2] in a line: Solubility in water of isolated compounds.

Consider two molecules from paper PMC5546590 (Biologics : Targets & Therapy, 2017).

Each structure is given as a SMILES string.

horse butyxylcholinesterase, sequence (P81908 whole entry): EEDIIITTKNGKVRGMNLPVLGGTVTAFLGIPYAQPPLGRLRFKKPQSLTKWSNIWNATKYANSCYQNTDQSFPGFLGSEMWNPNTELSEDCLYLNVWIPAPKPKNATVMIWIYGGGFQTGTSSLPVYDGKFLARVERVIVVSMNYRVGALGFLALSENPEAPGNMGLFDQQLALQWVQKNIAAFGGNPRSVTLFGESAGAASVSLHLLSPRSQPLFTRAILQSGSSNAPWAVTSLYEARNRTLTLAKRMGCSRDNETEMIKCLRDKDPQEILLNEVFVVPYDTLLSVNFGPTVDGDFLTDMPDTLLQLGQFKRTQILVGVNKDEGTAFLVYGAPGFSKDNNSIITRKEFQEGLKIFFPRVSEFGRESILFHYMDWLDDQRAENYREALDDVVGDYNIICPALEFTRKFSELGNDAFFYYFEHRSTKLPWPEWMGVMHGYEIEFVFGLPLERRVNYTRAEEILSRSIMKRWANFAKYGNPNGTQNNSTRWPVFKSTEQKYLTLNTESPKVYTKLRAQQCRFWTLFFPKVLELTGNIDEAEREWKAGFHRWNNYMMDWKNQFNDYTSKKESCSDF
electric eel AChE, sequence (O42275 24-633): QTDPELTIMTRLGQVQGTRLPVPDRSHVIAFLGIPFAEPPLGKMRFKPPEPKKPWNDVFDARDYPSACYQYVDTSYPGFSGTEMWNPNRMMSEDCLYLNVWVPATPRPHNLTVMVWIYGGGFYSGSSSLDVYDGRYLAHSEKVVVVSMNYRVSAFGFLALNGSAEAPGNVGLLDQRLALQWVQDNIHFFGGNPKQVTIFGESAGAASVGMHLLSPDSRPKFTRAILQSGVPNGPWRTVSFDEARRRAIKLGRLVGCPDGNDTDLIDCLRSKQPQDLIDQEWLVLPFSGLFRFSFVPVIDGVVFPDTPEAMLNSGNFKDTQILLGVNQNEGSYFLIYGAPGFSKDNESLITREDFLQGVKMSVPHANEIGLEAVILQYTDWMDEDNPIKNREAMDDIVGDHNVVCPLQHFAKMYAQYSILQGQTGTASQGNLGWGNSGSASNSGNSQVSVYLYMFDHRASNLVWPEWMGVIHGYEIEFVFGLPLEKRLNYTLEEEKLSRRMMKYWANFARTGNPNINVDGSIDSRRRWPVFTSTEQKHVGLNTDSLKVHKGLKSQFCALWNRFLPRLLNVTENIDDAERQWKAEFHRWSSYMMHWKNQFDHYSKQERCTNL

With `C=C(C)[C@@H]1CC[C@]2(CO)CC[C@]3(C)[C@H](CC[C@@H]4[C@@]5(C)CC[C@H](O)C(C)(C)[C@@H]5CC[C@]43C)[C@@H]12` [Compound 1, betulin], the half-inhibitory concentration (IC50) against electric eel AChE was 1.99 µM; in data set [1], 10.5 µM.
Regarding `CC(C)[C@H](C)CC[C@@H](C)[C@H]1CC[C@H]2[C@@H]3CC=C4C[C@@H](O)CC[C@]4(C)[C@H]3CC[C@]12C` [Compound 2, campesterol], the half-maximal inhibitory concentration (IC50) against electric eel AChE was 4.72 µM; in data set [1], 10.2 µM. For the same molecule, in data set [2], the Solubility in water entry is given as “Soluble”.
